Papp A→B data for 18 compounds are collected here from patent US20250049806A1, “PHARMACEUTICAL COMPOSITION FOR PROVIDING TREATMENT FOR OR PREVENTING ALPORT SYNDROME” (UBE Corporation, priority 2021, published 2025).

This data set in a line: Transcellular transport test using Caco2 cell. It counts as in vitro ADME. The conditions noted are these: human, Caco-2, apical-to-basolateral (A-to-B), pH=7.4, 10 µM compound. The procedure: Caco2 cells (purchased from ATCC) were cultured in DMEM medium (Thermo Fisher Scientific, Inc., 11965) containing 10% FBS (Thermo Fisher Scientific, Inc., 10082) and 1% penicillin/streptomycin/amphotericin B (Thermo Fisher Scientific, Inc., 15240). A transcellular transport test was carried out in accordance with MultiScreen Caco2 Drug Transport Assembly in a 96-well system (Application Note AN1727EN, MultiScreen Caco-2 Assay System, Merck) by partially modifying it. The Caco2 cells were inoculated at a cell density of 4×10^4 cells/well onto a micropore polycarbonate insert of a 96-well plate (Merck, Millcell-96 culture insert plate 0.4 μm pore size, well membrane area=0.11 cm^2, PSHT004S5) and cultured for 20 to 22 days, and the resulting monolayer was used in the transcellular transport test. The medium of the inoculated cells was replaced with a fresh one every 3 to 4 days.
Apical-to-basolateral (A-to-B) transport in the Caco2 cell monolayer membrane was performed by using HBSS (Thermo Fisher Scientific, Inc., 14025) medium (pH=7.4) containing 20 mM HEPES (Thermo Fisher Scientific, Inc., 15630), and adding HEPES-containing HBSS medium containing 10 µM compound (a 10 mM solution of the compound in DMSO was added at a 1000-fold dilution; final DMSO concentration: 0.1%) at 75 μL/well to the apical side and HEPES-containing HBSS medium supplemented with no compound at 250 μL/well to the basolateral side, followed by culture at 37° C. for 90 minutes. After culture, a 100 μL aliquot was collected from the basolateral side, and the concentration of a permeated compound was measured by LC-MS/MS under measurement conditions mentioned later. Papp (apparent permeability; cm/sec) was calculated from the determined concentration. Papp was determined according to the expression given below by calculating the slope (dA/dt; nmol/sec) of a straight line drawn between two points 0 minutes and zero amount of the compound in a graph plotted with an assay time (90 min) on the abscissa against the amount of the compound in the solution on the permeated side on the ordinate. As for an assay concentration, the concentration in the compound in the HEPES-containing HBSS medium containing the added compound was measured by UV-HPLC under measurement conditions mentioned later.
C0: assay concentration, S: plate membrane area=0.11 cm^2
• LC: LC20 or LC30 HPLC system manufactured by Shimadzu Corp. • Column: Phenomenex Kinetex C18 (50 mm×2.1 mm, 2.6 μm) • Column temperature: 40° C. • Flow rate: 0.3 mL/min • Mobile phase A: 0.1% aqueous formic acid solution • Mobile phase B: 0.1% formic acid, 50% acetonitrile/methanol mixed solution • Gradient: 0-2 min; A/B=90/10 to 10/90, 2-3 min; A/B=10/90, 3-3.01 min; A/B=10/90 to 90/10 • MS: Q-Trap3200 manufactured by AB Sciex Pte. Ltd. • Ionization: ESI • Mode: Positive
• LC: LC20 or LC30 HPLC system manufactured by Shimadzu Corp. • Column: Phenomenex Kinetex C18 (100 mm×2.1 mm, 2.6 μm) • Column temperature: 40° C. • Flow rate: 0.25 mL/min • Mobile phase A: 0.1% aqueous formic acid solution • Mobile phase B: 0.1% formic acid, 50% acetonitrile/methanol mixed solution • Gradient: 0-3 min; A/B=90/10, 3-11 min; A/B=90/10 to 5/95, 11-15 min; A/B=5/95, 15-15.1 min; A/B=5/95 to 90/10 • UV detector: photodiode array detector
A: Papp>1×10^−6 (cm/sec), B: 1×10^−6 (cm/sec)≥Papp>5×10^−7 (cm/sec), C: 5×10^−7 (cm/sec)≥Papp>1×10^−7 (cm/sec), or D: Papp≤1×10^−7 (cm/sec).
(Caco-2 cells form a polarised layer with tight junctions and transporters.)
`O=C(O)C[C@H](NC(=O)CNC(=O)c1cc(NC2=NCC(F)CN2)c2cn[nH]c2c1)c1cc(Cl)cc(I)c1` (stereo partly drawn) [21-(b), (3S)-3-(3-chloro-5-iodophenyl)-3-(2-(4-((5-fluoro-1,4,5,6-tetrahydropyrimidin-2-yl)amino)-1H-indazole-6-carboxamido)acetamido)propanoic acid]: the apparent permeability from apical to basolateral (Papp A→B) – broadly, how fast a substance crosses the layer from the apical side – at 90 min, 10 µM was > 1 ×10⁻⁶ cm/s.
With `O=C(O)C[C@H](NC(=O)CNC(=O)c1cc(NC2=NCC(F)CN2)cc2[nH]ncc12)c1cc(Cl)cc(C(F)(F)F)c1` (stereo partly drawn) [52-(b), (3S)-3-(3-chloro-5-(trifluoromethyl)phenyl)-3-(2-(6-((5-fluoro-1,4,5,6-tetrahydropyrimidin-2-yl)amino)-1H-indazole-4-carboxamido)acetamido)propanoic acid], the Papp A→B at 90 min, 10 µM was in the range of 0.1 to 0.5 ×10⁻⁶ cm/s.
Turning to `O=C(O)C[C@H](NC(=O)CNC(=O)c1cc(NC2=NCC(F)CN2)c2cn[nH]c2c1)c1ccc(F)c(C(F)(F)F)c1` (stereo partly drawn) [13-(b), (3S)-3-(2-(4-((5-fluoro-1,4,5,6-tetrahydropyrimidin-2-yl)amino)-1H-indazole-6-carboxamido)acetamido)-3-(4-fluoro-3-(trifluoromethyl)phenyl)propanoic acid], the Papp A→B at 90 min, 10 µM was > 1 ×10⁻⁶ cm/s.
On to `O=C(O)C[C@H](NC(=O)CNC(=O)c1cc(NC2=NCC(F)CN2)c2cn[nH]c2c1)c1cc(Br)cc(C(F)(F)F)c1` (stereo partly drawn) [2-(b), (3S)-3-(3-bromo-5-(trifluoromethyl)phenyl)-3-(2-(4-((5-fluoro-1,4,5,6-tetrahydropyrimidin-2-yl)amino)-1H-indazole-6-carboxamido)acetamido)propanoic acid], for which the apical-to-basolateral permeability (Papp A→B) at 90 min, 10 µM was 0.5 to 1 ×10⁻⁶ cm/s.
With `O=C(O)C[C@H](NC(=O)CNC(=O)c1cc(NC2=NCC(F)CN2)c2cn[nH]c2c1)c1cccc(C(F)F)c1` (stereo partly drawn) [38-(b), (3S)-3-(3-(difluoromethyl)phenyl)-3-(2-(4-((5-fluoro-1,4,5,6-tetrahydropyrimidin-2-yl)amino)-1H-indazole-6-carboxamido)acetamido)propanoic acid], the apparent permeability from apical to basolateral (Papp A→B) at 90 min, 10 µM is > 1 ×10⁻⁶ cm/s.
For the compound `O=C(O)C[C@H](NC(=O)CNC(=O)c1cc(NC2=NCC(F)CN2)c2cn[nH]c2c1)c1cccc(C(F)(F)F)c1Cl` (stereo partly drawn) [10-(b), (3S)-3-(2-chloro-3-(trifluoromethyl)phenyl)-3-(2-(4-((5-fluoro-1,4,5,6-tetrahydropyrimidin-2-yl)amino)-1H-indazole-6-carboxamido)acetamido)propanoic acid], the apparent permeability from apical to basolateral (Papp A→B) at 90 min, 10 µM is > 1 ×10⁻⁶ cm/s.
Regarding `O=C(O)C[C@H](NC(=O)CNC(=O)c1cc(NC2=NCC(F)CN2)c2c(F)n[nH]c2c1)c1cc(Cl)cc(C(F)(F)F)c1` (stereo partly drawn) [48-(b), (3S)-3-(3-chloro-5-(trifluoromethyl)phenyl)-3-(2-(3-fluoro-4-((5-fluoro-1,4,5,6-tetrahydropyrimidin-2-yl)amino)-1H-indazole-6-carboxamido)acetamido)propanoic acid], the Papp A→B at 90 min, 10 µM was > 1 ×10⁻⁶ cm/s.
`COc1ccc([C@H](CC(=O)O)NC(=O)CNC(=O)c2cc(NC3=NCC(F)CN3)c3cn[nH]c3c2)cc1Br` (stereo partly drawn) [16-(b), (3S)-3-(3-bromo-4-methoxyphenyl)-3-(2-(4-((5-fluoro-1,4,5,6-tetrahydropyrimidin-2-yl)amino)-1H-indazole-6-carboxamido)acetamido)propanoic acid]: the Papp A→B at 90 min, 10 µM was > 1 ×10⁻⁶ cm/s.
For `Cc1ccc([C@H](CC(=O)O)NC(=O)CNC(=O)c2cc(NC3=NCC(F)CN3)c3cn[nH]c3c2)cc1C(F)(F)F` (stereo partly drawn) [14-(b), (3S)-3-(2-(4-((5-fluoro-1,4,5,6-tetrahydropyrimidin-2-yl)amino)-1H-indazole-6-carboxamido)acetamido)-3-(4-methyl-3-(trifluoromethyl)phenyl)propanoic acid], the apparent permeability from apical to basolateral (Papp A→B) at 90 min, 10 µM was > 1 ×10⁻⁶ cm/s.
Regarding `O=C(O)C[C@H](NC(=O)CNC(=O)c1cc(NC2=NCC(F)CN2)c2cn[nH]c2c1)c1cc(Cl)cc(Cl)c1` (stereo partly drawn) [17-(b), (3S)-3-(3,5-dichlorophenyl)-3-(2-(4-((5-fluoro-1,4,5,6-tetrahydropyrimidin-2-yl)amino)-1H-indazole-6-carboxamido)acetamido)propanoic acid], the Papp A→B at 90 min, 10 µM is > 1 ×10⁻⁶ cm/s.
Consider `O=C(O)C[C@H](NC(=O)CNC(=O)c1cc(NC2=NCC(F)CN2)c2cn[nH]c2c1)c1cc(Br)cc(OC(F)F)c1` (stereo partly drawn) [26-(b), (3S)-3-(3-bromo-5-(difluoromethoxy)phenyl)-3-(2-(4-((5-fluoro-1,4,5,6-tetrahydropyrimidin-2-yl)amino)-1H-indazole-6-carboxamido)acetamido)propanoic acid], for which the Papp A→B at 90 min, 10 µM was > 1 ×10⁻⁶ cm/s.
`O=C(O)C[C@H](NC(=O)CNC(=O)c1cc(NC2=NCC(F)CN2)cc2[nH]ncc12)c1cc(I)cc(C(F)(F)F)c1` (stereo partly drawn) [54-(b), (3S)-3-(2-(6-((5-fluoro-1,4,5,6-tetrahydropyrimidin-2-yl)amino)-1H-indazole-4-carboxamido)acetamido)-3-(3-iodo-5-(trifluoromethyl)phenyl)propanoic acid] registered an apparent permeability from apical to basolateral (Papp A→B) at 90 min, 10 µM of 0.1 to 0.5 ×10⁻⁶ cm/s.
On to `O=C(O)C[C@H](NC(=O)CNC(=O)c1cc(NC2=NCC(F)CN2)c2cn[nH]c2c1)c1cc(OC(F)F)cc(-n2cccn2)c1` (stereo partly drawn) [29-(b), (3S)-3-(3-(difluoromethoxy)-5-(1H-pyrazol-1-yl)phenyl)-3-(2-(4-((5-fluoro-1,4,5,6-tetrahydropyrimidin-2-yl)amino)-1H-indazole-6-carboxamido)acetamido)propanoic acid], for which the Papp A→B at 90 min, 10 µM lay within 0.1 to 0.5 ×10⁻⁶ cm/s.
For the compound `O=C(O)C[C@H](NC(=O)CNC(=O)c1cc(NC2=NCC(F)CN2)c2c(Cl)n[nH]c2c1)c1cc(Cl)cc(C(F)(F)F)c1` (stereo partly drawn) [49-(b), (3S)-3-(2-(3-chloro-4-((5-fluoro-1,4,5,6-tetrahydropyrimidin-2-yl)amino)-1H-indazole-6-carboxamido)acetamido)-3-(3-chloro-5-(trifluoromethyl)phenyl)propanoic acid], the apical-to-basolateral permeability (Papp A→B) at 90 min, 10 µM fell in the range of 0.5 to 1 ×10⁻⁶ cm/s.
As for `O=C(O)C[C@H](NC(=O)CNC(=O)c1cc(NC2=NCC(F)CN2)c2cn[nH]c2c1)c1cc(Br)cc(OC(F)(F)F)c1` (stereo partly drawn) [32-(b), (3S)-3-(3-bromo-5-(trifluoromethoxy)phenyl)-3-(2-(4-((5-fluoro-1,4,5,6-tetrahydropyrimidin-2-yl)amino)-1H-indazole-6-carboxamido)acetamido)propanoic acid], the Papp A→B at 90 min, 10 µM is > 1 ×10⁻⁶ cm/s.
The result for `O=C(O)C[C@H](NC(=O)CNC(=O)c1cc(NC2=NCC(F)CN2)c2cn[nH]c2c1)c1cc(Cl)cc(OC(F)(F)F)c1` (stereo partly drawn) [31-(b), (3S)-3-(3-chloro-5-(trifluoromethoxy)phenyl)-3-(2-(4-((5-fluoro-1,4,5,6-tetrahydropyrimidin-2-yl)amino)-1H-indazole-6-carboxamido)acetamido)propanoic acid] reads > 1 ×10⁻⁶ cm/s; that for `O=C(O)C[C@H](NC(=O)CNC(=O)c1cc(NC2=NCC(F)CN2)c2cn[nH]c2c1)c1cccc(-n2cccn2)c1` (stereo partly drawn) [43-(b), (3S)-3-(3-(1H-pyrazol-1-yl)phenyl)-3-(2-(4-((5-fluoro-1,4,5,6-tetrahydropyrimidin-2-yl)amino)-1H-indazole-6-carboxamido)acetamido)propanoic acid], > 1 ×10⁻⁶ cm/s.
Take `O=C(O)C[C@H](NC(=O)CNC(=O)c1cc(NC2=NCC(O)CN2)c2cn[nH]c2c1)c1cc(Cl)cc(C(F)(F)F)c1` (stereo partly drawn) [50-(b), (3S)-3-(3-chloro-5-(trifluoromethyl)phenyl)-3-(2-(4-((5-hydroxy-1,4,5,6-tetrahydropyrimidin-2-yl)amino)-1H-indazole-6-carboxamido)acetamido)propanoic acid]: the Papp A→B at 90 min, 10 µM is > 1 ×10⁻⁶ cm/s.
